Experimental data: PMC4737989 (European journal of medicinal chemistry, 2016)

Columns and labels:
HEK293T cells = details: treated HEK293 cells, Cell-TiterGlo
[1] = molecular target: T1, VDR-LBD / Alexa Fluor-SRC2-3 coactivator peptide (Homo sapiens, UniProt P11473, DEL165-215); assay: VDR-coactivator binding fluorescence polarization assay, competitive inhibition
T1 sequence (P11473 with tags, fused parts or gaps DEL165-215 limits assumed): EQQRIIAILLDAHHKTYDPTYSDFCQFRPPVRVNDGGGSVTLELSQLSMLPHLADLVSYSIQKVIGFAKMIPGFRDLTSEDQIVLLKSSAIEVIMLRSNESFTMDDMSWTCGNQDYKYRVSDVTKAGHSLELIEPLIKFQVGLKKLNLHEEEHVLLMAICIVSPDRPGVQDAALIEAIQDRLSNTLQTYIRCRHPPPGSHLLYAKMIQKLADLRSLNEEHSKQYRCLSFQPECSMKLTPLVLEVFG

[2] = molecular target: T1, VDR-LBD / Alexa Fluor-SRC2-3 coactivator peptide; assay: VDR-coactivator binding fluorescence polarization assay, agonistic binding; details: without LG190178
VP16-VDR-LBD / SRC1-GAL4 [3] = molecular target: T2, VP16-VDR-LBD / SRC1-GAL4 (Homo sapiens, UniProt P11473); assay: Two-hybrid assay in HEK293T cells, inhibition in the presence of 10 nM 1,25; type: cell-based; details: 10 nM 1,25(OH)2D3
T2 sequence (P11473 127-423 limits assumed): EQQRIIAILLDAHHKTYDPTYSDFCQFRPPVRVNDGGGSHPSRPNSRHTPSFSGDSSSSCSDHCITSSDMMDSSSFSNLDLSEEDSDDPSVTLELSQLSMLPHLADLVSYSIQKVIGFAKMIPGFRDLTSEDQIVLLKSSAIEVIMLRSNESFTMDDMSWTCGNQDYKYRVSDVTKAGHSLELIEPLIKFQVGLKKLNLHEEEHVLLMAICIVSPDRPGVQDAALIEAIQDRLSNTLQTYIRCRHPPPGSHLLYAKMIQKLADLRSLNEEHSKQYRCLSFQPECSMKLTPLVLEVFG

PPARα-Gal4 = molecular target: T3, PPARα-Gal4 (Homo sapiens, UniProt Q07869); type: cell-based; details: HEK293 cells, luminescence
T3 sequence (Q07869 1-468): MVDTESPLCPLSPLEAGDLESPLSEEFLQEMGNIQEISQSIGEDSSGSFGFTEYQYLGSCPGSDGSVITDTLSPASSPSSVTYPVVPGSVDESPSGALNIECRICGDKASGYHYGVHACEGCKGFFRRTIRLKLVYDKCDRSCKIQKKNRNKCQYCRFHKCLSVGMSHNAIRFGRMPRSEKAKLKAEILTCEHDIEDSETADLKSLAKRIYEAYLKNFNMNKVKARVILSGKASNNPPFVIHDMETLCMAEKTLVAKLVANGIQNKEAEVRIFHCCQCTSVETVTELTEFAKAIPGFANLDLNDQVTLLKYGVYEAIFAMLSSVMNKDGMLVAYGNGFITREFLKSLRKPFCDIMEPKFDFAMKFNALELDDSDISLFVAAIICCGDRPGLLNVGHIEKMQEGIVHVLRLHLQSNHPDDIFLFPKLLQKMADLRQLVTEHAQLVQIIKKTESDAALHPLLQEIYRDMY

VDR target gene CYP24A1 = assay: CYP24A1 gene regulation in DU145 cells by qRT-PCR; type: cell-based; details: 7.5 μM, with 20 nM 1,25(OH)2D3, 18 hours
VDR = details: cited from earlier work
VP16-VDR-LBD / SRC1-GAL4 [4] = molecular target: T2, VP16-VDR-LBD / SRC1-GAL4; assay: Two-hybrid assay in HEK293T cells, agonist mode; type: cell-based

With `C[C@H](CCC(=O)O)[C@H]1CC[C@H]2[C@@H]3[C@H](O)C[C@@H]4C[C@H](O)CC[C@]4(C)[C@H]3CC[C@]12C` [CDCA, chenodeoxycholic acid] the “Toxicity LD50” value (HEK293T cells) was over 150 µM.
In the case of `C=C1/C(=C\C=C2/CCC[C@]3(C)[C@@H]([C@H](C)CC(=O)O)CC[C@@H]23)C[C@@H](O)C[C@@H]1O` [Calcitroic Acid, calcitroic acid], the “Potency of VDR-SRC2-3 inhibition relative to LCA” value ([1]; ratio of IC50 values) is reported as “approximately six times more potent” and the “VDR-LBD recruitment of SRC2-3 coactivator peptide (in words)” value (shortened to “VDR-LBD recruitment”) [2] is reported as “not able to support”.
In the case of `CC(=O)O[C@@H]1CC[C@@]2(C)[C@H](CC[C@@H]3[C@@H]2CC[C@]2(C)[C@@H]([C@H](C)CCC(=O)O)CC[C@@H]32)C1` [LCA Acetate], the “VDR-LBD recruitment” value [2] is reported as “not able to support” and the “Inhibition of VDR-SRC1 binding in the presence of 1,25(OH)2D3 (in words)” value (shortened to “Inhibition of VDR-SRC1 binding”) (VP16-VDR-LBD / SRC1-GAL4 [3]) is reported as “No inhibition”.
With `C[C@H](CCC(=O)O)[C@H]1CC[C@H]2[C@@H]3CC[C@@H]4C[C@H](O[C@@H]5O[C@H](C(=O)O)[C@@H](O)[C@H](O)[C@H]5O)CC[C@]4(C)[C@H]3CC[C@]12C` [LCA Gluc I, lithocholic acid glucuronide I] the “Inhibition of VDR-SRC1 binding” value (VP16-VDR-LBD / SRC1-GAL4 [3]) was “no inhibition” and the “Activation of transcription for the PPARα-Gal4 system” value (PPARα-Gal4) was “no activation of transcription”.
For `C[C@H](CCC(=O)O[C@@H]1O[C@H](C(=O)O)[C@@H](O)[C@H](O)[C@H]1O)[C@H]1CC[C@H]2[C@@H]3CC[C@@H]4C[C@H](O)CC[C@]4(C)[C@H]3CC[C@]12C` [LCA Gluc II, lithocholic acid glucuronide II], the “Inhibition of VDR-SRC1 binding” value (VP16-VDR-LBD / SRC1-GAL4 [3]) was “no inhibition”, the “Induction of CYP24A1 in the presence of 1,25(OH)2D3 (in words)” value (VDR target gene CYP24A1) was “more pronounced” and the “Activation of transcription for the PPARα-Gal4 system” value (PPARα-Gal4) was “no activation of transcription”.
For `C[C@H](CCC(=O)O)[C@H]1CC[C@H]2[C@@H]3CC[C@@H]4C[C@H](O)CC[C@]4(C)[C@H]3CC[C@]12C` [LCA, lithocholic acid], the Reported cellular activity (VDR) is listed as “approximately 10 μM”.
With `COC(=O)CC[C@@H](C)[C@H]1CC[C@H]2[C@@H]3CC[C@@H]4C[C@H](O)CC[C@]4(C)[C@H]3CC[C@]12C` [LCME, lithocholic acid methyl ester] the “Inhibition of VDR-SRC2-3 binding (in words)” value ([1]; fluorescence polarization, with LG190178) was “inactive”, the “VDR-LBD recruitment” value [2] was “not able to support” and the “Activation in the cellular VDR-SRC1 2-hybrid assay (in words)” value (VP16-VDR-LBD / SRC1-GAL4 [4]) was “did not activate transcription”.
In the case of `C[C@H](CCC(=O)O)[C@H]1CC[C@H]2[C@@H]3[C@@H](O)C[C@@H]4C[C@H](O)CC[C@]4(C)[C@H]3CC[C@]12C` [UDCA, ursodeoxycholic acid], the “Toxicity LD50” value (HEK293T cells) is reported as over 150 µM.
